The source of these data is ChEMBL document CHEMBL2424515, “Identification of novel substrates and structure-activity relationship of cellular uptake mediated by human organic cation transporters 1 and 2” (J Med Chem, 2013).

A value given as a limit tells only on which side of the number the result lay.

The term Km denotes the substrate concentration at which the rate is half of its maximum.

One data set concerns the target T1, OCT2 (SLC22A2) (Homo sapiens, UniProt O15244).
T1 sequence (O15244 whole entry): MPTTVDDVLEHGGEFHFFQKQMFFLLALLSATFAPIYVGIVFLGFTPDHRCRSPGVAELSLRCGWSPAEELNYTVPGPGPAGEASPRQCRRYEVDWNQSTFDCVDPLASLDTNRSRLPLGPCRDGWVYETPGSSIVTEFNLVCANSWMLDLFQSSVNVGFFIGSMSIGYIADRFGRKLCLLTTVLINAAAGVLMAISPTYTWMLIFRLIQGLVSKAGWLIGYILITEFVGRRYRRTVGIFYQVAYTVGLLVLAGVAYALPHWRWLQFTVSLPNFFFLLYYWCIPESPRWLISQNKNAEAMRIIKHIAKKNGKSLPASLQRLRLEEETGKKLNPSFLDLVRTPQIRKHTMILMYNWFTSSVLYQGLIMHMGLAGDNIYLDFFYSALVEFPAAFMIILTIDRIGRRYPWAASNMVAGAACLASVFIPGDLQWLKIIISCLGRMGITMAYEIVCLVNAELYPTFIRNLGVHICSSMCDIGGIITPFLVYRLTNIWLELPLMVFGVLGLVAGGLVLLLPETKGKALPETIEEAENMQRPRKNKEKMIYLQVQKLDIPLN
The data set can be described thus: Cellular uptake in human HEK293 cells assessed as human OCT2-mediated drug transport at 2.5 uM after 4 mins by LC-MS/MS analysis relative to passive uptake. The class given is ADME, cell-based. The settings on record: HEK293 cells expressing human OCT2, read-out: FC.

The next data set addresses T2, OCT1 (SLC22A1) (Homo sapiens, UniProt O15245).
T2 sequence (O15245 whole entry): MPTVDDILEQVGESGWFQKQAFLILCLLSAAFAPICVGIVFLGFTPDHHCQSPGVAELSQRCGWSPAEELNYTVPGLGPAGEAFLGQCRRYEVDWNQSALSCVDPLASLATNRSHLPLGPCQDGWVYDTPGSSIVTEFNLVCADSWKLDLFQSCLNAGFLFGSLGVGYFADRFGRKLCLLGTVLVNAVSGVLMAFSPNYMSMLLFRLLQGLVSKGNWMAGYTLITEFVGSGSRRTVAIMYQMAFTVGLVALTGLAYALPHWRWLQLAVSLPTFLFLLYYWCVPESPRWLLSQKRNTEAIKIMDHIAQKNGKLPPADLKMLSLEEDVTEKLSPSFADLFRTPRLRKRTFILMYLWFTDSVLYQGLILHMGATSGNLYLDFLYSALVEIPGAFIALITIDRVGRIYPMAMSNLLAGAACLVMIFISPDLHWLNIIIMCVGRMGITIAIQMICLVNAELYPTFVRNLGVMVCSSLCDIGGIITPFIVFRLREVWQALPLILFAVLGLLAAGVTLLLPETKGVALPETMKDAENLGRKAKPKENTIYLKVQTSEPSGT
The data set can be described thus: Cellular uptake in human HEK293 cells assessed as human OCT1-mediated drug transport at 2.5 uM after 4 mins by LC-MS/MS analysis relative to passive uptake. The settings on record: HEK293 cells expressing human OCT1, read-out: FC. The class given is ADME, cell-based.

For data set [1], the target named is T3, Solute carrier family 22 member 1 (Homo sapiens, UniProt O15245).
T3 sequence (O15245 whole entry): T2 sequence (O15245 whole entry)
The data set can be described thus: Cellular uptake in human HEK293 cells assessed as human OCT1-mediated drug transport at 2.5 uM after 4 mins by LC-MS/MS analysis. The class given is ADME, cell-based. The settings on record: hek293, 4 min.

The target of data set [2] is T4, Solute carrier family 22 member 2 (Homo sapiens, UniProt O15244).
T4 sequence (O15244 whole entry): T1 sequence (O15244 whole entry)
The data set can be described thus: Cellular uptake in human HEK293 cells assessed as human OCT2-mediated drug transport at 2.5 uM after 4 mins by LC-MS/MS analysis. Type of data set: ADME, cell-based. Conditions: hek293, 4 min.

Substrate in data set [3]: CC[N+](CC)(CC)CC
The data set can be described thus: cells, lysate or membranes named.

Substrate in data set [4]: CN/C(=N/CCSCc1nc[nH]c1C)NC#N
The data set can be described thus: cells, lysate or membranes named.

With `C[N+]1(C)[C@@H]2C[C@@H](OC(=O)C(O)(c3cccs3)c3cccs3)C[C@H]1[C@@H]1O[C@@H]12` [TIOTROPIUM], the uptake ratio at 4 min, 2.5 µM at OCT2 (SLC22A2) was 39; at OCT1 (SLC22A1), 75. Further, the Drug uptake in data set [1] worked out at 820 pmol/mg; in data set [2], 460 pmol/mg.

`CCC(NC(C)C)C(O)c1ccc(O)c2[nH]c(=O)ccc12` (centres undefined) [PROCATEROL]: the uptake ratio at 4 min, 2.5 µM came to 1.9 at OCT2 (SLC22A2) and 11 at OCT1 (SLC22A1). Besides, the Drug uptake was found to be 140 pmol/mg in data set [1] and 14 pmol/mg in data set [2].

Take `N#Cc1ccc(OC2CCNC2)c(-c2cc(C(N)=O)c(NC(N)=O)s2)c1` (racemic): the uptake ratio at 4 min, 2.5 µM on OCT2 (SLC22A2) was 1.6; on OCT1 (SLC22A1), 39. For the same molecule, the figures for the Drug uptake in data set [1] and in data set [2] were 1653 pmol/mg and 22 pmol/mg, respectively.

As for `O=C(NCCNCC(O)COc1ccc(O)cc1)N1CCOCC1` (centres undefined) [XAMOTEROL], the figures for the uptake ratio at 4 min, 2.5 µM at OCT2 (SLC22A2) and at OCT1 (SLC22A1) were 1.6 and 43, respectively. In addition, the figures for the Drug uptake in data set [1] and in data set [2] were 230 pmol/mg and 5.2 pmol/mg, respectively.

As to `CC(C)(C)NCC(O)c1ccc(O)c(CO)c1` (centres undefined) [ALBUTEROL], the values for the uptake ratio at 4 min, 2.5 µM at OCT2 (SLC22A2) and at OCT1 (SLC22A1) were 15 and 11, respectively. In addition, the Drug uptake in data set [1] is listed as 58 pmol/mg; in data set [2], 270 pmol/mg.

In the case of `CN/C(=N/CCSCc1nc[nH]c1C)NC#N` [CIMETIDINE], the uptake ratio at 4 min, 2.5 µM at OCT2 (SLC22A2) stood at 15; on OCT1 (SLC22A1) it was 6.5. Besides, the Drug uptake came out at 65 pmol/mg in data set [1] and 270 pmol/mg in data set [2].

`NC(=O)Nc1sc(-c2ccc(OC3CCNC3)cc2)cc1C(N)=O` (racemic): the uptake ratio at 4 min, 2.5 µM at OCT2 (SLC22A2) came to 1.4; on OCT1 (SLC22A1), 73. The results for the Drug uptake in data set [1] and in data set [2] were 1493 pmol/mg and 8.5 pmol/mg, respectively.

On to `CNS(=O)(=O)Cc1ccc2[nH]cc(CCN(C)C)c2c1`, for which the uptake ratio at 4 min, 2.5 µM at OCT2 (SLC22A2) was found to be 3.3; at OCT1 (SLC22A1) it was 15. Besides, the Drug uptake in data set [1] came to 620 pmol/mg; in data set [2] it was 94 pmol/mg.

Turning to `CN(C)C(=N)N=C(N)N` [METFORMIN], the Drug uptake was 5.4 pmol/mg in data set [1] and 110 pmol/mg in data set [2].

As to `NC(=O)Nc1sc(-c2ccccc2O[C@H]2CCNC2)cc1C(N)=O`, the uptake ratio at 4 min, 2.5 µM was found to be 1.9 at OCT2 (SLC22A2) and 26 at OCT1 (SLC22A1). For the same molecule, the Drug uptake in data set [1] is listed as 1047 pmol/mg; in data set [2], 37 pmol/mg.

For `CNC(=C[N+](=O)[O-])NCCSCc1ccc(CN(C)C)o1` [RANITIDINE], the uptake ratio at 4 min, 2.5 µM on OCT2 (SLC22A2) was 1.6; on OCT1 (SLC22A1), 18. For the same molecule, the Drug uptake in data set [1] worked out at 600 pmol/mg; in data set [2] it was 22 pmol/mg.

For `CC[N+](C)(CC)CCOC(=O)C(O)(c1ccccc1)C1CCCCC1` (centres undefined) [OXYPHENONIUM], the uptake ratio at 4 min, 2.5 µM on OCT2 (SLC22A2) came to 14; on OCT1 (SLC22A1), 25. Besides, the Drug uptake in data set [1] was determined as 640 pmol/mg; in data set [2], 230 pmol/mg.

As for `N=C(N)NC(=O)c1nc(Cl)c(N)nc1N` [AMILORIDE], the uptake ratio at 4 min, 2.5 µM is 74 at OCT2 (SLC22A2) and 76 at OCT1 (SLC22A1). Further, the Drug uptake in data set [1] is listed as 1430 pmol/mg; in data set [2] it was 1660 pmol/mg.

On to `NC(=O)Nc1sc(-c2ccccc2OC2CNC2)cc1C(N)=O`, for which the uptake ratio at 4 min, 2.5 µM at OCT2 (SLC22A2) worked out at 2.2; on OCT1 (SLC22A1) it was 11. The Drug uptake in data set [1] turned out to be 641 pmol/mg; in data set [2], 63 pmol/mg.

Regarding `NC(=O)Nc1sc(-c2cccc(OC3CCNC3)c2)cc1C(N)=O` (racemic), the results for the uptake ratio at 4 min, 2.5 µM at OCT2 (SLC22A2) and at OCT1 (SLC22A1) were 1.6 and 68, respectively. For the same molecule, the Drug uptake in data set [1] turned out to be 1352 pmol/mg; in data set [2] it was 21 pmol/mg.

As to `NC(=O)Nc1sc(-c2ccccc2OC2CCNCC2)cc1C(N)=O`, the uptake ratio at 4 min, 2.5 µM is 1.8 on OCT2 (SLC22A2) and 17 on OCT1 (SLC22A1). Besides, the Drug uptake amounted to 821 pmol/mg in data set [1] and 35 pmol/mg in data set [2].

As to `NCCOc1ccccc1-c1nc(C(N)=O)c(NC(N)=O)s1`, the figures for the uptake ratio at 4 min, 2.5 µM at OCT2 (SLC22A2) and on OCT1 (SLC22A1) were 1.3 and 13, respectively. The Drug uptake stood at 796 pmol/mg in data set [1] and 40 pmol/mg in data set [2].

As for `C[N+]1(C)CCC(Oc2ccccc2-c2cc(C(N)=O)c(NC(N)=O)s2)C1` (racemic), the uptake ratio at 4 min, 2.5 µM at OCT2 (SLC22A2) was 4.3; at OCT1 (SLC22A1), 53. Moreover, the Drug uptake is recorded as 903 pmol/mg in data set [1] and 46 pmol/mg in data set [2].

Consider `NC(=O)Nc1sc(-c2ccccc2O[C@@H]2CCNC2)cc1C(N)=O`, for which the uptake ratio at 4 min, 2.5 µM at OCT2 (SLC22A2) is 1.1; at OCT1 (SLC22A1) it was 15. Also, the Drug uptake is given as 586 pmol/mg in data set [1] and 6.6 pmol/mg in data set [2].

Consider `NCCCOc1ccccc1-c1nc(C(N)=O)c(NC(N)=O)s1`, for which the uptake ratio at 4 min, 2.5 µM at OCT2 (SLC22A2) was determined as 1.5; on OCT1 (SLC22A1), 14. For the same molecule, the Drug uptake in data set [1] is recorded as 739 pmol/mg; in data set [2] it was 23 pmol/mg.

As to `[H]/N=C(/N)N/C(=N/[H])NCCc1ccccc1` [PHENFORMIN], the uptake ratio at 4 min, 2.5 µM on OCT2 (SLC22A2) was more than 35; at OCT1 (SLC22A1), more than 39. For the same molecule, the results for the Drug uptake in data set [1] and in data set [2] were 570 pmol/mg and 450 pmol/mg, respectively.

B1: Solute carrier family 22 member 1 (Homo sapiens) (protein)
chain: T2 sequence (O15245 whole entry)
As for B1, the Michaelis constant (Km) in data set [3] is 140 µM.

B2: Solute carrier family 22 member 2 (Homo sapiens) (protein)
chain: T1 sequence (O15244 whole entry)
Regarding B2, the Km in data set [4] is 60 µM.
